The subject of one data set is T. b. rhodesiense. The data set can be described thus: Treatment of mice infected with T. b. rhodesiense (cure and survival). It is filed as in vivo. The settings on record: for Cured/Infected: i.p., five doses at 6 hour interval. Here is the method:
Mice were infected with T. b. rhodesiense, a protozoan that causes acute symptoms at 1×10^3 cells/mouse, administration of medication in mice was started 24 hours after the infection, and the mice received five doses of each drug at the dosing interval of 6 hours. Mice were all infected and treated intraperitoneally (i.p). Mice that have no Trypanosomatid protozoan in the blood and survive even 60 days or more after the end of treatment were determined to be cured. Survival days represents an average survival time after treatment in mice that died from infection; therefore, survival days for the group of cured mice are not described in Table 2.

Data set [1] deals with glycerol-3-phosphate-dependent respiration. The settings on record: mitochondrial specimen of T. brucei brucei multiplied in the rat bloodstream; cited from earlier work.
For data set [2], the target named is Cryptosporidium cyanide insensitive oxidase (AOX), recombinant protein (cCpAOX) (Cryptosporidium parvum, UniProt Q761U6). The data set can be described thus: CpAOX enzyme inhibition. It is filed as biochemical. An excerpt:
Cryptosporidium has found to have cyanide insensitive oxidase (AOX), and its inhibitory activity was observed using its recombinant protein (cCpAOX) produced in E. coli.

Data set [3] has as its target T1, recombinant Trypanosome AOX (TAO) enzyme (Trypanosoma brucei brucei, UniProt Q26710).
T1 construct: made in house; host or cells: Escherichia coli (membrane fraction)
The data set can be described thus: TAO enzyme inhibition (quinol oxidase activity, ubiquinol-1 substrate). It counts as biochemical, T. brucei brucei. The settings on record: TAO-expressing E. coli membrane fraction, 25° C., ubiquinol-1, absorbance at 278 nm. An outline of the steps: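 E. coli membranes expressing T. brucei brucei TAO (0.35 ng) pre-incubated with inhibitor in 50 mM Tris-HCl pH 7.5, 4 min at 25 °C. Reaction started with ubiquinol-1; quinol oxidation followed as absorbance change at 278 nm.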

A further data set has as its system T. b. rhodesiense IL1501. In words: Antiprotozoal effect, MIC measurement in HMI-9 culture. It is filed as cell-based. The settings on record: Trypanosoma brucei, RHODESIENSE, 24 h, bloodstream forms, 18 + 6 hours culture. In short, it runs like this:
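Bloodstream-form T. b. rhodesiense IL1501 were grown in HMI-9 medium at 37° C. with 5% CO2. Three-fold serial drug dilutions from DMSO stocks were made in 96-well plates in HMI-9, with or without glycerol (final 5 mM), and 5×10^4 cells/well added. After 18 hours plus 6 more hours of culture, wells were checked by microscope; MIC was the lowest concentration showing no motile survivors.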

The mark [4] stands for this setting: Glycerol (+), final concentration of glycerol of 5 mM.

Cryptosporidium cyanide insensitive oxidase (AOX), recombinant protein (cCpAOX), sequence (Q761U6 entry or part of it): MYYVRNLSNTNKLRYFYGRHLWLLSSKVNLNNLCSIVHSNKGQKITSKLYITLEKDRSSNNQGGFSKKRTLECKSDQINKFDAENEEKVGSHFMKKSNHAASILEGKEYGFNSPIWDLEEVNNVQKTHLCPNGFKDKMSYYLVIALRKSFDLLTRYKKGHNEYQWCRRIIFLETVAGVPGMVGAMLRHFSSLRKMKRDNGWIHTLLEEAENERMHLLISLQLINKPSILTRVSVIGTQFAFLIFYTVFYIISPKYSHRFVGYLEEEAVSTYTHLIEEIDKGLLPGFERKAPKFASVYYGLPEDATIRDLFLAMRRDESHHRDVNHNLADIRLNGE
T1 sequence (Q26710 whole entry): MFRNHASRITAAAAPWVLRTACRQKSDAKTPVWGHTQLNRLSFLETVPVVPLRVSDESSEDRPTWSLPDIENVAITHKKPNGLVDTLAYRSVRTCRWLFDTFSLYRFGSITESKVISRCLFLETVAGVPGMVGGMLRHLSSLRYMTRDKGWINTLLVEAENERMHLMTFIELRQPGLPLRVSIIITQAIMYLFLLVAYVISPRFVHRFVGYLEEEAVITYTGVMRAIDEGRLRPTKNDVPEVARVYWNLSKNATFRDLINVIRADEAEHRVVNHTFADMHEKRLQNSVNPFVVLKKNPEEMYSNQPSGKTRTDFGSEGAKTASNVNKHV

For `C/C(=C\Cc1c(O)c(Cl)c(C)c(C=O)c1O)CC/C=C(\C)[C@@H]1CC(=O)C(C)(C)O1` (racemic) [Ascofuranone, dl-5-Chloro-2,4-dihydroxy-6-methyl-3-[(2E,6E)-3-methyl-7-(3,3-dimethyl-4-oxo-2-oxacyclopentyl)-2,6-octadienyl]benzaldehyde], the Survival days turned out to be 12 days in the data set on T. b. rhodesiense (Glycerol dose 0, average survival time after treatment in mice that died from infection); 12 days with T. b. rhodesiense (Glycerol dose 50 mg/kg, average survival time of mice that died from infection); 21 days with T. b. rhodesiense (Glycerol dose 750 mg/kg, average survival time of mice that died from infection). Further, the Cured/Infected in the data set with T. b. rhodesiense (Glycerol dose 0, start 24 hours after infection, cured = no protozoan in blood and survival 60 days or more) is reported as 0/5; with T. b. rhodesiense (Glycerol dose 50 mg/kg), 0/5; with T. b. rhodesiense (Glycerol dose 750 mg/kg), 2/3; in the data set on T. b. rhodesiense (Glycerol dose 1.25 g/kg), 5/5. The “absolute amounts of 50% inhibition” value in data set [1] was 25 pmol/mg protein.

Consider `CCCC[C@H]1C(=O)O[C@H](C)[C@H](NC(=O)c2cccc(NC=O)c2O)C(=O)O[C@@H](C)[C@@H]1OC(=O)CC(C)C` [Antimycin A3], for which the “absolute amounts of 50% inhibition” value in data set [1] is listed as 48,600 pmol/mg protein.

The term melting point denotes the temperature, or range, at which the solid turns liquid. By IC50 is commonly meant the concentration that gives 50% inhibition. As usually defined, the MIC is the lowest concentration that inhibits growth of the organism. For `CCC(=O)OCCCCCCCCCc1c(O)c(Cl)c(C)c(C=O)c1O` [Compound 215-13-OCOEt, 9-(3-Chloro-5-formyl-2,6-dihydroxy-4-methylphenyl)nonyl propionate], the melting point is 69 to 70 °C. Further, the IC50 in data set [2] came to 2.1 nM. Moreover, the IC50 in data set [3] came out at 0.2 nM. The minimum inhibitory concentration (MIC) with T. b. rhodesiense IL1501 (setting [4]) turned out to be 7.1 nM. Moreover, the MIC in the data set on T. b. rhodesiense IL1501 (Glycerol (−)) was determined as 125 nM.

On to `C/C(=C\Cc1c(O)c(Cl)c(C)c(C=O)c1O)CC/C=C(\C)COC(=O)C(C)(C)C` [Compound 234-12-OPiv, (2E,6E)-8-(3-Chloro-5-formyl-2,6-dihydroxy-4-methylphenyl)-2,6-dimethyl-2,6-octadienyl pivalate], for which the Cured/Infected with T. b. rhodesiense (Glycerol dose 1.25 g/kg) is 5/5. Moreover, the IC50 in data set [3] came to 0.4 nM. Further, the MIC in the data set on T. b. rhodesiense IL1501 (setting [4]) was determined as 0.031 nM; in the data set on T. b. rhodesiense IL1501 (Glycerol (−)) it was 0.39 nM.

As for `CCCCC/C(C)=C\Cc1c(O)c(Cl)c(C)c(C=O)c1O` [Compound 264-8-z, (Z)-3-Chloro-4,6-dihydroxy-2-methyl-5-(3-methyl-2-octenyl)benzaldehyde], the melting point lay in the range of 157 to 158 °C. The concentration for half-maximal inhibition (IC50) in data set [2] came out at 1.4 nM. In addition, the half-inhibitory concentration (IC50) in data set [3] turned out to be 0.18 nM. Besides, the MIC in the data set on T. b. rhodesiense IL1501 (setting [4]) came out at 0.17 nM. Further, in the data set on T. b. rhodesiense IL1501 (Glycerol (−)), the MIC turned out to be 0.25 nM.

`CC(=O)/C(C)=C/CC/C(C)=C/Cc1c(O)c(Cl)c(C)c(C=O)c1O` [Compound 276-9] had a melting point of 119 to 120 °C. Further, in data set [2], the IC50 was 2.1 nM. Moreover, the IC50 in data set [3] was determined as 1.2 nM. For the same compound, in the data set on T. b. rhodesiense IL1501 (setting [4]), the minimal inhibitory concentration (MIC) is 0.53 nM. For the same compound, in the data set on T. b. rhodesiense IL1501 (Glycerol (−)), the MIC amounted to 13 nM.

Turning to `C/C(=C\Cc1c(O)c(Cl)c(C)c(C=O)c1O)CC/C=C(\C)C(C)O` (stereo not shown) [Compound 277-9-OH], in the data set on T. b. rhodesiense (Glycerol dose 1.25 g/kg), the Cured/Infected is reported as 4/4. In addition, the IC50 is 2.5 nM in data set [2] and 0.48 nM in data set [3]. The MIC with T. b. rhodesiense IL1501 (setting [4]) came to 0.048 nM; in the data set with T. b. rhodesiense IL1501 (Glycerol (−)), 74 nM.

With `CC(=O)OC(C)/C(C)=C/CC/C(C)=C/Cc1c(O)c(Cl)c(C)c(C=O)c1O` (stereo not shown) [Compound 277-11-OAc, (3E,7E)-9-(3-Chloro-5-formyl-2,6-dihydroxy-4-methyl)phenyl-3,7-dimethyl-3,7-nonadie2-yl acetate], the Cured/Infected with T. b. rhodesiense (Glycerol dose 1.25 g/kg) was 4/4. The IC50 came to 1.5 nM in data set [2] and 1.2 nM in data set [3]. In addition, the MIC with T. b. rhodesiense IL1501 (setting [4]) came to 0.082 nM; in the data set with T. b. rhodesiense IL1501 (Glycerol (−)), 2.3 nM.

As to `Cc1c(Cl)c(O)c(CCCCCCC(C)C)c(O)c1C=O` [Compound 279-8, 3-Chloro-4,6-dihydroxy-2-methyl-5-(7-methyloctyl)benzaldehyde], the melting point was in the range of 93 to 94 °C. Also, in data set [2], the IC50 came out at 2.1 nM. Moreover, in data set [3], the IC50 worked out at 0.22 nM. In addition, the MIC in the data set on T. b. rhodesiense IL1501 (setting [4]) turned out to be 7.3 nM. In addition, in the data set with T. b. rhodesiense IL1501 (Glycerol (−)), the MIC was determined as 12 nM.

With `CCCCCC#CCc1c(O)c(Cl)c(C)c(C=O)c1O` [Compound 284-8, 3-Chloro-4,6-dihydroxy-5-(2-octynyl)-2-methylbenzaldehyde], the melting point was in the range of 135 to 136 °C. For the same compound, the IC50 in data set [2] worked out at 1.9 nM. Also, in data set [3], the IC50 came out at 0.3 nM. Further, in the data set on T. b. rhodesiense IL1501 (setting [4]), the MIC was found to be 9.6 nM. The MIC in the data set on T. b. rhodesiense IL1501 (Glycerol (−)) turned out to be 92 nM.

The compound `Cc1c(Cl)c(O)c(CCCCCCCCCC(=O)OCC2COC(C)(C)O2)c(O)c1C=O` (stereo not shown) [Compound 502-16-G, 2,2-Dimethyl-1,3-dioxolanee-4-methyl 10-(3-chloro-5-formyl-2,6-dihydroxy-4-methylphenyl)decanoate] had a melting point of 55 to 56 °C. For the same compound, the IC50 in data set [2] turned out to be 2.3 nM. Further, in data set [3], the IC50 is 0.3 nM. In the data set on T. b. rhodesiense IL1501 (setting [4]), the minimal inhibitory concentration (MIC) amounted to 1.2 nM. For the same compound, the MIC in the data set on T. b. rhodesiense IL1501 (Glycerol (−)) is 12 nM.

Consider `CO/C(=C/C(N)=O)[C@H](C)[C@H](/C=C/c1csc(-c2csc([C@@H](C)/C=C/C=C/C(C)C)n2)n1)OC` [myxothiazol], for which the “absolute amounts of 50% inhibition” value in data set [1] is given as 21,500 pmol/mg protein.

On to `C/C=C(C)/C=C/C=C/[C@H](OC)[C@@H](C)[C@@H](OC)[C@@H](C)CCc1oc2c(O)c(OC)cc(OC)c2c(=O)c1C` [stigmatellin], for which the “absolute amounts of 50% inhibition” value in data set [1] is given as 18,600 pmol/mg protein.

Source of the values: patent US9440913B2, “Dihydroxybenzene derivatives and antiprotozoal agent comprising same as active ingredient” (NAI INC., priority 2010, dated 2016).
